# PubChem BioAssay (NCI)
# Several values for one entry are separate records, joined by “and”; a condition that tells them apart may be missing. Equal values may be shown once.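 Here, GI50 denotes the concentration required for 50% inhibition of growth. TGI denotes the concentration required for complete inhibition of growth.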
# Key:
# Assay in all cases: growth of human tumour cells (NCI), 384-well format
# HT29 colon = test system: HT29 colon
# KM12 colon = test system: KM12 colon
# UACC-257 melanoma = test system: UACC-257 melanoma
# NCI-H226 lung = test system: NCI-H226 lung
# RPMI-8226 leukemia = test system: RPMI-8226 leukemia
# SF-295 CNS = test system: SF-295 CNS
# U251 glioblastoma = test system: U251 glioblastoma
# 786-0 renal = test system: 786-0 renal
# HS 578T breast = test system: HS 578T breast
# CAKI-1 renal = test system: CAKI-1 renal
# HL-60(TB) leukemia = test system: HL-60(TB) leukemia
# OVCAR-8 ovarian = test system: OVCAR-8 ovarian
# COLO 205 colon = test system: COLO 205 colon
# TK-10 renal = test system: TK-10 renal
# UACC-62 melanoma = test system: UACC-62 melanoma
# K-562 leukemia = test system: K-562 leukemia
# SN12C renal = test system: SN12C renal
# SK-MEL-2 melanoma = test system: SK-MEL-2 melanoma
# HOP-62 NSCLC = test system: HOP-62 NSCLC
# A498 renal = test system: A498 renal
# SNB-75 CNS = test system: SNB-75 CNS
# SR leukemia = test system: SR leukemia
# NCI-H460 NSCLC = test system: NCI-H460 NSCLC
# SK-OV-3 ovarian = test system: SK-OV-3 ovarian
# EKVX NSCLC = test system: EKVX NSCLC
# NCI-H23 lung = test system: NCI-H23 lung
# OVCAR-3 ovarian = test system: OVCAR-3 ovarian
# SF-268 CNS = test system: SF-268 CNS
# M14 melanoma = test system: M14 melanoma
# MDA-MB-231 breast = test system: MDA-MB-231 breast
# MDA-MB-435 melanoma = test system: MDA-MB-435 melanoma
# MCF7 breast = test system: MCF7 breast
# HCT-15 colon = test system: HCT-15 colon
# T-47D breast = test system: T-47D breast
# NCI-H322M lung = test system: NCI-H322M lung
# SW-620 colon = test system: SW-620 colon
# ACHN renal = test system: ACHN renal
# NCI/ADR-RES ovarian = test system: NCI/ADR-RES ovarian
# MDA-MB-468 breast = test system: MDA-MB-468 breast
# MALME-3M melanoma = test system: MALME-3M melanoma
# NCI-H522 lung = test system: NCI-H522 lung
# OVCAR-5 ovarian = test system: OVCAR-5 ovarian
# IGROV1 ovarian = test system: IGROV1 ovarian
# SK-MEL-5 melanoma = test system: SK-MEL-5 melanoma
# MOLT-4 leukemia = test system: MOLT-4 leukemia
# SF-539 CNS = test system: SF-539 CNS
# CCRF-CEM leukemia = test system: CCRF-CEM leukemia
# LOX IMVI melanoma = test system: LOX IMVI melanoma
# A549 NSCLC = test system: A549 NSCLC
# HOP-92 NSCLC = test system: HOP-92 NSCLC
# PC-3 prostate = test system: PC-3 prostate
# SNB-19 CNS = test system: SNB-19 CNS
# DU-145 prostate = test system: DU-145 prostate
# RXF 393 renal = test system: RXF 393 renal
# HCC-2998 colon = test system: HCC-2998 colon
# HCT-116 colon = test system: HCT-116 colon
# OVCAR-4 ovarian = test system: OVCAR-4 ovarian
# SK-MEL-28 melanoma = test system: SK-MEL-28 melanoma
# BT-549 breast = test system: BT-549 breast
# UO-31 renal = test system: UO-31 renal
smiles,measurement,setting,value
Oc1cccc(-c2nc(N3CCOCC3)c3oc4ncccc4c3n2)c1,GI50,HT29 colon,3280 nM and 3420 nM
same,TGI,HT29 colon,> 100000 nM
same,GI50,KM12 colon,312 nM and 305 nM
same,TGI,KM12 colon,> 100000 nM
same,GI50,UACC-257 melanoma,535 nM and 350 nM
same,TGI,UACC-257 melanoma,5390 nM and 3810 nM
same,GI50,NCI-H226 lung,3470 nM and 2290 nM
same,TGI,NCI-H226 lung,22400 nM and 5680 nM
same,GI50,RPMI-8226 leukemia,116 nM and 44.9 nM
same,TGI,RPMI-8226 leukemia,419 nM and 184 nM
same,GI50,SF-295 CNS,1290 nM and 2370 nM
same,TGI,SF-295 CNS,4020 nM and 8530 nM
same,GI50,U251 glioblastoma,670 nM and 390 nM
same,TGI,U251 glioblastoma,> 100000 nM and 19600 nM
same,GI50,786-0 renal,297 nM
same,TGI,786-0 renal,1480 nM
same,GI50,HS 578T breast,61.9 nM and 86.1 nM
same,TGI,HS 578T breast,288 nM and 617 nM
same,GI50,CAKI-1 renal,395 nM and 255 nM
same,TGI,CAKI-1 renal,5220 nM and 12300 nM
same,GI50,HL-60(TB) leukemia,62.2 nM and 20.5 nM
same,TGI,HL-60(TB) leukemia,978 nM and 217 nM
same,GI50,OVCAR-8 ovarian,197 nM
same,TGI,OVCAR-8 ovarian,> 100000 nM
same,GI50,COLO 205 colon,4480 nM and 5550 nM
same,TGI,COLO 205 colon,33600 nM and 27200 nM
same,GI50,TK-10 renal,331 nM and 167 nM
same,TGI,TK-10 renal,1920 nM and 695 nM
same,GI50,UACC-62 melanoma,305 nM and 400 nM
same,TGI,UACC-62 melanoma,1460 nM and 2300 nM
same,GI50,K-562 leukemia,327 nM
same,TGI,K-562 leukemia,> 100000 nM
same,GI50,SN12C renal,121 nM and 43.3 nM
same,GI50,SK-MEL-2 melanoma,808 nM
same,TGI,SK-MEL-2 melanoma,4720 nM
same,GI50,HOP-62 NSCLC,429 nM and 231 nM
same,TGI,HOP-62 NSCLC,3820 nM and 2810 nM
same,GI50,A498 renal,2050 nM and 598 nM
same,TGI,A498 renal,4690 nM and 2870 nM
same,GI50,SNB-75 CNS,33.4 nM and 53.7 nM
same,GI50,SR leukemia,207 nM and 61.2 nM
same,TGI,SR leukemia,890 nM and 205 nM
same,GI50,NCI-H460 NSCLC,155 nM and 44.1 nM
same,GI50,SK-OV-3 ovarian,81.1 nM and 120 nM
same,GI50,EKVX NSCLC,111 nM and 135 nM
same,TGI,EKVX NSCLC,468 nM and 504 nM
same,GI50,NCI-H23 lung,306 nM and 324 nM
same,TGI,NCI-H23 lung,16100 nM and 17700 nM
same,GI50,OVCAR-3 ovarian,54 nM and 118 nM
same,TGI,OVCAR-3 ovarian,398 nM and 408 nM
same,GI50,SF-268 CNS,239 nM and 394 nM
same,TGI,SF-268 CNS,10100 nM and 17900 nM
same,GI50,M14 melanoma,260 nM and 155 nM
same,GI50,MDA-MB-231 breast,289 nM and 500 nM
same,TGI,MDA-MB-231 breast,47600 nM and > 100000 nM
same,GI50,MDA-MB-435 melanoma,161 nM and 162 nM
same,TGI,MDA-MB-435 melanoma,823 nM and 767 nM
same,GI50,MCF7 breast,208 nM and 99 nM
same,TGI,MCF7 breast,23300 nM and 19500 nM
same,GI50,HCT-15 colon,128 nM and 104 nM
same,TGI,HCT-15 colon,> 100000 nM and 38500 nM
same,GI50,T-47D breast,150 nM and 215 nM
same,GI50,NCI-H322M lung,229 nM and 106 nM
same,TGI,NCI-H322M lung,2030 nM and 642 nM
same,GI50,SW-620 colon,561 nM
same,TGI,SW-620 colon,> 100000 nM
same,GI50,ACHN renal,70.7 nM and 77.9 nM
same,TGI,ACHN renal,2440 nM and 563 nM
same,GI50,NCI/ADR-RES ovarian,240 nM and 151 nM
same,TGI,NCI/ADR-RES ovarian,> 100000 nM and 18000 nM
same,GI50,MDA-MB-468 breast,289 nM and 291 nM
same,TGI,MDA-MB-468 breast,1140 nM and 1240 nM
same,GI50,MALME-3M melanoma,40.3 nM and 83.5 nM
same,GI50,NCI-H522 lung,81.6 nM and 55.9 nM
same,TGI,NCI-H522 lung,524 nM and 501 nM
same,GI50,OVCAR-5 ovarian,3540 nM and 2560 nM
same,GI50,IGROV1 ovarian,115 nM and 155 nM
same,TGI,IGROV1 ovarian,393 nM and 380 nM
same,GI50,SK-MEL-5 melanoma,103 nM and 77.6 nM
same,TGI,SK-MEL-5 melanoma,498 nM and 279 nM
same,GI50,MOLT-4 leukemia,23 nM and 39.1 nM
same,TGI,MOLT-4 leukemia,230 nM and 195 nM
same,GI50,SF-539 CNS,114 nM and 143 nM
same,TGI,SF-539 CNS,1590 nM and 11400 nM
same,GI50,CCRF-CEM leukemia,202 nM
same,TGI,CCRF-CEM leukemia,2730 nM
same,GI50,LOX IMVI melanoma,318 nM and 207 nM
same,TGI,LOX IMVI melanoma,1570 nM and 1060 nM
same,GI50,A549 NSCLC,251 nM and 353 nM
same,TGI,A549 NSCLC,1680 nM and 15400 nM
same,GI50,HOP-92 NSCLC,50.6 nM and 111 nM
same,GI50,PC-3 prostate,40.8 nM and 39.3 nM
same,TGI,PC-3 prostate,1730 nM and 299 nM
same,GI50,SNB-19 CNS,1260 nM and 1380 nM
same,TGI,SNB-19 CNS,> 100000 nM and 24300 nM
same,GI50,DU-145 prostate,154 nM and 112 nM
same,GI50,RXF 393 renal,95.7 nM and 207 nM
same,TGI,RXF 393 renal,337 nM and 2860 nM
same,GI50,HCC-2998 colon,147 nM and 367 nM
same,TGI,HCC-2998 colon,4250 nM and 8570 nM
same,GI50,HCT-116 colon,982 nM and 466 nM
same,TGI,HCT-116 colon,> 100000 nM
same,GI50,OVCAR-4 ovarian,350 nM and 87.4 nM
same,TGI,OVCAR-4 ovarian,3690 nM and 613 nM
same,GI50,SK-MEL-28 melanoma,96.3 nM and 123 nM
same,GI50,BT-549 breast,27.9 nM and 125 nM
same,TGI,BT-549 breast,347 nM and 493 nM
same,GI50,UO-31 renal,60.9 nM
same,TGI,UO-31 renal,295 nM
